The values that follow come from patent US9693992B2 (MannKind Corporation, priority 2010, dated 2017).

The test system of test [1] is human myeloma RPMI8226 tumor xenografts. The experiment in a line: RPMI8226 xenograft efficacy model. The test is classed as in vivo, SCID mice. The settings on record: after cessation of therapy. As to the method:
SCID mice are evaluated for their ability to support implantation of desired tumor cells in support of model development and characterization. Mice are injected intravenously […] or implanted either subcutaneously (SC) or intraperitoneally (IP). To generate a relevant animal model mimicking human disease, it is desirable that all three approaches are evaluated for improved implantation rates and relevant disease progression, as is well known in the art. SC injections provide an easy way to measure tumor growth and efficacy, and IV and IP injections represent a more physiologically relevant model of human tumor spread. SC injections are given primarily in the flank, while IV injections are administered in the tail vein. Mice are manually restrained for SC and IP injections, and a Broome mouse restrainer is used for IV injections.
SCID mice are implanted with tumor cells (human RPMI8226 myeloma cells) via IP, IV or SC routes based on the results from the xenograft model development studies (above). Mice are treated with compound or mock treated (vehicle) for a period of up to 4-5 weeks. Compound administration can be via IV, IP, PO or SC routes. […]
Mice are monitored for tumor growth, regression and general health. […] Tumor growth is measured by calipers, ultrasound, or by abdominal lavage. Biomarkers in the blood or tumor can evaluated (primarily XBP-1 splicing). […]

The test system of test [2] is XBP-1 splicing. The experiment in a line: Inhibition of endogenous XBP-1 splicing in RPMI 8226 cells with thapsigargin (RT-PCR). The format is cell-based, human. The settings on record: 300 nM, 2 hours. As to the method: PCR amplification products were run on a 4% agarose gel and stained with ethidium bromide. The inverse image is shown.
RPMI 8226 cells were grown in monolayer culture using Dulbecco's Modified Eagle Medium (DMEM) supplemented with 10% fetal calf serum (FCS) at 37° C. and 5% CO2. Compounds were kept as 10 mM stock in DMSO at −20° C. and diluted in medium to 10 μM. Thapsigargin (Tg) was resuspended in DMSO and diluted in medium.
Procedures for measuring XBP-1s and XBP-1u mRNAs have been described previously (Volkmann et al., J. Biol. Chem. 286, 12743-55, 2011). Briefly, total RNA was harvested from cells or tissue using TRIZOL® (Invitrogen) according to the manufacture's procedures. After ethanol precipitation and resuspension of the RNA, RIBOGREEN® (Invitrogen) was used to quantify the yield- and normalize the RNA concentration in the source tube containing isolated RNA. RT-PCR was performed by oligo dT priming, […]® II (Invitrogen) and reverse transcription using the […] GOLD® Kit (Applied Biosystems) according to the manufacturer's protocols. Primers for human XBP-1 were
All DNA oligos were purchased from IDT DNA Technologies. PCR reactions were run on a Bio-Rad PTC-100® 96-well thermocycler; heating at 94° C. for 30 seconds, annealing at 58° C. for 30 seconds polymerizing at 72° C. for 30 seconds for 35 cycles.

The test system of test [3] is XBP-1 splicing. The experiment in a line: XBP-1 splicing inhibition in livers and kidneys of CB17 SCID mice after tunicamycin. The test is classed as in vivo. The settings on record: 1 mg/kg IP, alone, relative to PBS treated mice. An excerpt:
The preclinical validation strategy employs a set of animal models representing normal tissues under chemical stress and multiple myeloma xenographs. The normal animal model is employed as a surrogate model where dose-related on-target activity of compounds can be confirmed in tissues sensitive to standard UPR inducing agents such as tunicamycin (Wu et al., Dev Cell. 2007 September; 13(1d):351-64). […] Upon induction with tunicamycin, tissues induce active XBP-1 mRNA splicing, and this activity is suppressed by IRE-1α inhibitors. This on-target ER stress animal model is a useful screening and early pharmacokinetic tool.
CB17 SCID mice were treated with 1 mg/kg tunicamycin by intraperitoneal (IP) injection at time 0 (T=0). Two hours later, compound A formulated in 10% hydroxy beta propyl cyclo dextran HBPCD was administered by IP injection. Doses were 50 mg/kg, 25 mg/kg and 10 mg/kg (4 mice in each group). Mice were sacrificed two hours later (4 hours from T=0), and the designated organs were harvested (FIG. 3A).
RT-PCR analysis was performed using murine-specific XBP-1 primers from total RNA harvested from specified organs. […] Each lane represents an individual mouse where RNA was harvested and RT-PCR was performed. Method of RNA extraction and RT-PCR analysis is described in Volkmann et al., J. Biol. Chem. 286, 12743-55, 2011. […]

With `CC(C)C[C@H](NC(=O)[C@H](Cc1ccccc1)NC(=O)c1cnccn1)B(O)O` [bortezomib, [(1R)-3-methyl-1-[[(2S)-1-oxo-3-phenyl-2-[(pyrazinylcarbonyl)amino]propyl]amino]butyl]boronic acid], the tumor recurrence result in test [1] is “tumors often recurred and grew into large masses”.
As for `C/C=C(/C)C(=O)O[C@H]1C(C)=C2[C@H]([C@@H]1OC(=O)CCCCCCC)[C@@](C)(OC(C)=O)C[C@H](OC(=O)CCC)[C@@]1(O)[C@H]2OC(=O)[C@@]1(C)O` [Thapsigargin], in test [2], the “conversion of XBP-1u to XBP-1s” value is recorded as “near complete conversion of XBP-1u to XBP-1s”.
Regarding tunicamycin, in test [3], the “induction of XBP-1s” value was “induces XBP-1 spliced”.
